Laboratory results: ChEMBL document CHEMBL2375306, “Antimicrobial peptides containing unnatural amino acid exhibit potent bactericidal activity against ESKAPE pathogens” (Bioorg Med Chem, 2013)
Converted amounts (≈) assume the structure as drawn. Square brackets hold non-standard residues; d marks the D form. Peptide text beside a SMILES is read from it. ξ: configuration not given here. Pro(3ξ,4ξ-(CH2)4) = O=C(O)[C@H]1NCC2CCCCC21; Phe(4-F) = N[C@@H](Cc1ccc(F)cc1)C(=O)O; Tic = O=C(O)[C@@H]1Cc2ccccc2CN1; Orn = NCCC[C@H](N)C(=O)O

Key:
Assay type in all cases: functional
Enterococcus faecium = assay: Antibacterial activity against Enterococcus faecium MMC4 after 24 hrs by broth microdilution method; conditions: MMC4, 24 h
Klebsiella aerogenes = assay: Antibacterial activity against Enterobacter aerogenes after 24 hrs by broth microdilution method
Pseudomonas aeruginosa = assay: Antibacterial activity against Pseudomonas aeruginosa PAO1 after 24 hrs by broth microdilution method; conditions: PAO1, 24 h
Klebsiella pneumoniae = assay: Antibacterial activity against Klebsiella pneumoniae BAMS clinical isolate 07-18 after 24 hrs by broth microdilution method; conditions: BAMS clinical isolate 07-18, 24 h
Acinetobacter baumannii = assay: Antibacterial activity against Acinetobacter baumannii WRAIR clinical isolate 13 after 24 hrs by broth microdilution method; conditions: WRAIR clinical isolate 13, 24 h
Staphylococcus aureus = assay: Antibacterial activity against methicillin-sensitive Staphylococcus aureus UAMS-1 after 24 hrs by broth microdilution method; conditions: UAMS-1, 24 h

Row | SMILES | MBC (Enterococcus faecium) [µg/mL] | MIC (Enterococcus faecium) [µg/mL] | MBC (Klebsiella aerogenes) [µg/mL] | MIC (Klebsiella aerogenes) [µg/mL] | MBC (Pseudomonas aeruginosa) [µg/mL] | MIC (Pseudomonas aeruginosa) [µg/mL] | MBC (Klebsiella pneumoniae) [µg/mL] | MIC (Klebsiella pneumoniae) [µg/mL] | MBC (Acinetobacter baumannii) [µg/mL] | MIC (Acinetobacter baumannii) [µg/mL] | MBC (Staphylococcus aureus) [µg/mL] | MIC (Staphylococcus aureus) [µg/mL]
1 | CC(=O)NCC(=O)N[C@@H](Cc1ccc(F)cc1)C(=O)N1Cc2ccccc2C[C@H]1C(=O)N1CC2CCCCC2[C@H]1C(=O)NCC(=O)N[C@@H](CCCCN)C(=O)N1Cc2ccccc2C[C@H]1C(=O)N1CC2CCCCC2[C@H]1C(=O)NCC(=O)N[C@@H](Cc1ccc(F)cc1)C(=O)N1Cc2ccccc2C[C@H]1C(=O)N1CC2CCCCC2[C@H]1C(=O)NCC(=O)N[C@@H](CCCCN)C(=O)N1Cc2ccccc2C[C@H]1C(=O)N[C@@H](CCCCN)C(=O)N[C@@H](CCCCN)C(=O)N[C@@H](CCCCN)C(=O)N[C@@H](CCCCN)C(N)=O (stereo partly specified) (Ac-G[Phe(4-F)][Tic][Pro(3ξ,4ξ-(CH2)4)]GK[Tic][Pro(3ξ,4ξ-(CH2)4)]G[Phe(4-F)][Tic][Pro(3ξ,4ξ-(CH2)4)]GK[Tic]KKKK-NH2) | 50 (≈ 20.2 µM) | 25 (≈ 10.1 µM) | > 100 | > 100 | > 100 | > 100 | 100 (≈ 40.4 µM) | 100 (≈ 40.4 µM) | 25 (≈ 10.1 µM) | 12.5 (≈ 5.05 µM) | 100 (≈ 40.4 µM) | 100 (≈ 40.4 µM)
2 | CC(C)C[C@H](NC(=O)[C@@H](N)CCCCN)C(=O)N1Cc2ccccc2C[C@H]1C(=O)N1CC2CCCCC2[C@H]1C(=O)N[C@@H](CCCCN)C(=O)N1Cc2ccccc2C[C@H]1C(=O)N1CC2CCCCC2[C@H]1C(=O)NC(=O)[C@H](Cc1ccccc1)NCC(=O)N1Cc2ccccc2C[C@H]1C(=O)N1CC2CCCCC2[C@H]1C(=O)N[C@@H](CCCCN)C(=O)N1Cc2ccccc2C[C@H]1C(=O)N1CC2CCCCC2[C@H]1C(=O)NC(=O)[C@H](Cc1ccccc1)NCC(=O)N1Cc2ccccc2C[C@H]1C(=O)N1CC2CCCCC2[C@H]1C(=O)N[C@@H](CCCCN)C(=O)N1Cc2ccccc2C[C@H]1C(=O)N1CC2CCCCC2[C@H]1C(=O)N[C@@H](CCCCN)C(=O)N[C@@H](CCCCN)C(=O)N[C@@H](CCCCN)C(=O)N[C@@H](CCCCN)C(N)=O (stereo partly specified) | 25 (≈ 7.3 µM) | 6.25 (≈ 1.82 µM) | 100 (≈ 29.2 µM) | 100 (≈ 29.2 µM) | 50 (≈ 14.6 µM) | 50 (≈ 14.6 µM) | 100 (≈ 29.2 µM) | 50 (≈ 14.6 µM) | 50 (≈ 14.6 µM) | 12.5 (≈ 3.65 µM) | 25 (≈ 7.3 µM) | 25 (≈ 7.3 µM)
3 | CC(C)C[C@H](NC(=O)[C@@H](N)CCCN)C(=O)N1Cc2ccccc2C[C@H]1C(=O)N1CC2CCCCC2[C@H]1C(=O)N[C@@H](CCCN)C(=O)N1Cc2ccccc2C[C@H]1C(=O)N1CC2CCCCC2[C@H]1C(=O)N[C@@H](Cc1ccccc1)C(=O)N1Cc2ccccc2C[C@H]1C(=O)N1CC2CCCCC2[C@H]1C(=O)N[C@@H](CCCN)C(=O)N1Cc2ccccc2C[C@H]1C(=O)N1CC2CCCCC2[C@H]1C(=O)N[C@@H](Cc1ccccc1)C(=O)N1Cc2ccccc2C[C@H]1C(=O)N1CC2CCCCC2[C@H]1C(=O)N[C@@H](CCCN)C(=O)N1Cc2ccccc2C[C@H]1C(=O)N1CC2CCCCC2[C@H]1C(=O)N[C@@H](CCCN)C(=O)N[C@@H](CCCN)C(=O)N[C@@H](CCCN)C(=O)N[C@@H](CCCN)C(N)=O (stereo partly specified) (H-[Orn]L[Tic][Pro(3ξ,4ξ-(CH2)4)][Orn][Tic][Pro(3ξ,4ξ-(CH2)4)]F[Tic][Pro(3ξ,4ξ-(CH2)4)][Orn][Tic][Pro(3ξ,4ξ-(CH2)4)]F[Tic][Pro(3ξ,4ξ-(CH2)4)][Orn][Tic][Pro(3ξ,4ξ-(CH2)4)][Orn][Orn][Orn][Orn]-NH2) | 50 (≈ 15.6 µM) | 12.5 (≈ 3.91 µM) | > 100 | 100 (≈ 31.2 µM) | > 100 | 100 (≈ 31.2 µM) | > 100 | 100 (≈ 31.2 µM) | 100 (≈ 31.2 µM) | 12.5 (≈ 3.91 µM) | 100 (≈ 31.2 µM) | 50 (≈ 15.6 µM)
